Source: the NIST ThermoML archive (doi:10.1021/je060271a)
± gives the expanded uncertainty stated by the source.

Settings: 283.14 K, Liquid, Vibrating tube method

CCCCCCC(=O)OCC(COC(=O)CCCCCC)(COC(=O)CCCCCC)COC(=O)CCCCCC [pentaerythritol tetraheptanoate]
Settings | mass density [kg/m3]
5880.4 kPa | 989.3 ± 1.2
5889.4 kPa | 989.2 ± 1.2
5899.2 kPa | 989.3 ± 1.2
5907.7 kPa | 989.3 ± 1.2
5916.4 kPa | 989.3 ± 1.2
5925.4 kPa | 989.4 ± 1.2
5935.4 kPa | 989.3 ± 1.2
5944.2 kPa | 989.2 ± 1.2
5952.8 kPa | 989.3 ± 1.2
5962.7 kPa | 989.3 ± 1.2
5971.7 kPa | 989.2 ± 1.2
5980.7 kPa | 989.3 ± 1.2
5989.5 kPa | 989.3 ± 1.2
6000.4 kPa | 989.2 ± 1.2
6009 kPa | 989.3 ± 1.2
6017.5 kPa | 989.3 ± 1.2
6028.4 kPa | 989.4 ± 1.2
6037.6 kPa | 989.3 ± 1.2
6046.5 kPa | 989.3 ± 1.2
6055.5 kPa | 989.5 ± 1.2
6066.2 kPa | 989.3 ± 1.2
6075.2 kPa | 989.4 ± 1.2
6084.6 kPa | 989.5 ± 1.2
6094.9 kPa | 989.3 ± 1.2
6104.1 kPa | 989.3 ± 1.2
6113.4 kPa | 989.5 ± 1.2
6124.2 kPa | 989.4 ± 1.2
6133.5 kPa | 989.4 ± 1.2
6142.8 kPa | 989.4 ± 1.2
6153.4 kPa | 989.4 ± 1.2
6162.9 kPa | 989.4 ± 1.2
6172.4 kPa | 989.4 ± 1.2
6182.1 kPa | 989.4 ± 1.2
6193.1 kPa | 989.4 ± 1.2
6202.5 kPa | 989.4 ± 1.2
6212.1 kPa | 989.4 ± 1.2
6223.2 kPa | 989.5 ± 1.2
6232.9 kPa | 989.5 ± 1.2
6242.4 kPa | 989.5 ± 1.2
6254.1 kPa | 989.4 ± 1.2
6263.6 kPa | 989.5 ± 1.2
6273.3 kPa | 989.5 ± 1.2
6282.8 kPa | 989.6 ± 1.2
6294.6 kPa | 989.5 ± 1.2
6304.3 kPa | 989.6 ± 1.2
6314.1 kPa | 989.6 ± 1.2
6325.9 kPa | 989.5 ± 1.2
6335.9 kPa | 989.5 ± 1.2
6345.6 kPa | 989.6 ± 1.2
6355.6 kPa | 989.5 ± 1.2
6367.7 kPa | 989.5 ± 1.2
6377.5 kPa | 989.6 ± 1.2
6387.7 kPa | 989.6 ± 1.2
6397.9 kPa | 989.6 ± 1.2
6410 kPa | 989.6 ± 1.2
6420.4 kPa | 989.6 ± 1.2
6431 kPa | 989.5 ± 1.2
6440.8 kPa | 989.5 ± 1.2
6452.9 kPa | 989.6 ± 1.2
6463.6 kPa | 989.5 ± 1.2
6473.8 kPa | 989.6 ± 1.2
6484 kPa | 989.6 ± 1.2
6494.6 kPa | 989.6 ± 1.2
6506.6 kPa | 989.6 ± 1.2
6517 kPa | 989.6 ± 1.2
6527.7 kPa | 989.6 ± 1.2
6540.3 kPa | 989.7 ± 1.2
6550.9 kPa | 989.5 ± 1.2
6564.2 kPa | 989.7 ± 1.2
6573.4 kPa | 989.7 ± 1.2
6583.9 kPa | 989.7 ± 1.2
6596.7 kPa | 989.7 ± 1.2
6607.2 kPa | 989.6 ± 1.2
6618.3 kPa | 989.7 ± 1.2
6631.8 kPa | 989.7 ± 1.2
6642.5 kPa | 989.7 ± 1.2
6653 kPa | 989.7 ± 1.2
6664.1 kPa | 989.7 ± 1.2
6677.7 kPa | 989.8 ± 1.2
6688.4 kPa | 989.7 ± 1.2
6699.5 kPa | 989.7 ± 1.2
6712.6 kPa | 989.7 ± 1.2
6723.8 kPa | 989.8 ± 1.2
6735.3 kPa | 989.8 ± 1.2
6746.7 kPa | 989.9 ± 1.2
6759.9 kPa | 989.7 ± 1.2
6771.5 kPa | 989.7 ± 1.2
6782.8 kPa | 989.8 ± 1.2
6794.2 kPa | 989.8 ± 1.2
6807.8 kPa | 989.8 ± 1.2
6818.9 kPa | 989.8 ± 1.2
6830.8 kPa | 989.8 ± 1.2
6844.4 kPa | 989.8 ± 1.2
6856.3 kPa | 989.7 ± 1.2
6868.3 kPa | 989.8 ± 1.2
6879.7 kPa | 989.9 ± 1.2
6894 kPa | 989.9 ± 1.2
6905.9 kPa | 989.9 ± 1.2
6917.3 kPa | 989.9 ± 1.2
6929.4 kPa | 989.9 ± 1.2
6943.4 kPa | 989.9 ± 1.2
6955.3 kPa | 989.9 ± 1.2
6967.2 kPa | 989.9 ± 1.2
6981.6 kPa | 989.8 ± 1.2
6993.5 kPa | 989.9 ± 1.2
7005.9 kPa | 989.9 ± 1.2
7020.3 kPa | 989.8 ± 1.2
7032.3 kPa | 990 ± 1.2
7045.1 kPa | 990.1 ± 1.2
7057.7 kPa | 989.8 ± 1.2
7072.1 kPa | 989.9 ± 1.2
7084.7 kPa | 990 ± 1.2
7096.9 kPa | 989.9 ± 1.2
7109.5 kPa | 990 ± 1.2
7124.4 kPa | 989.9 ± 1.2
7137 kPa | 990 ± 1.2
7149.8 kPa | 990 ± 1.2
7165.1 kPa | 990 ± 1.2
7178.1 kPa | 989.9 ± 1.2
7190.7 kPa | 990 ± 1.2
7203.7 kPa | 990 ± 1.2
7219 kPa | 990 ± 1.2
7232.1 kPa | 990 ± 1.2
7244.9 kPa | 990.1 ± 1.2
7258.2 kPa | 990.1 ± 1.2
7273.8 kPa | 990.1 ± 1.2
7287 kPa | 990 ± 1.2
7300 kPa | 990.1 ± 1.2
7315.9 kPa | 990.1 ± 1.2
7329.2 kPa | 990 ± 1.2
7342.5 kPa | 990.1 ± 1.2
7355.8 kPa | 990 ± 1.2
7372.2 kPa | 990.3 ± 1.2
7385.8 kPa | 990.1 ± 1.2
7399.3 kPa | 990.1 ± 1.2
7413.1 kPa | 990.1 ± 1.2
7429.3 kPa | 990.2 ± 1.2
7442.8 kPa | 990.2 ± 1.2
7456.9 kPa | 990.2 ± 1.2
7471.1 kPa | 990.2 ± 1.2
7487.7 kPa | 990.1 ± 1.2
7501.3 kPa | 990.2 ± 1.2
7515.3 kPa | 990.1 ± 1.2
7532 kPa | 990.3 ± 1.2
7546.5 kPa | 990.1 ± 1.2
7561.7 kPa | 990.1 ± 1.2
7576.2 kPa | 990.3 ± 1.2
7590.2 kPa | 990.3 ± 1.2
7604.7 kPa | 990.2 ± 1.2
7622 kPa | 990.3 ± 1.2
7636.1 kPa | 990.3 ± 1.2
7651 kPa | 990.3 ± 1.2
7668.2 kPa | 990.3 ± 1.2
7682.9 kPa | 990.2 ± 1.2
7697.4 kPa | 990.3 ± 1.2
7715.2 kPa | 990.2 ± 1.2
7729.3 kPa | 990.4 ± 1.2
7744.5 kPa | 990.4 ± 1.2
7760.2 kPa | 990.3 ± 1.2
7775.4 kPa | 990.4 ± 1.2
7793 kPa | 990.3 ± 1.2
7808 kPa | 990.4 ± 1.2
7823 kPa | 990.2 ± 1.2
7841 kPa | 990.4 ± 1.2
7855.8 kPa | 990.3 ± 1.2
7871.2 kPa | 990.4 ± 1.2
7889.8 kPa | 990.4 ± 1.2
7904.8 kPa | 990.4 ± 1.2
7920.5 kPa | 990.5 ± 1.2
7939.2 kPa | 990.4 ± 1.2
7955 kPa | 990.5 ± 1.2
7970.7 kPa | 990.4 ± 1.2
7986.3 kPa | 990.4 ± 1.2
8005.3 kPa | 990.5 ± 1.2
8020.9 kPa | 990.5 ± 1.2
8039.9 kPa | 990.5 ± 1.2
8056 kPa | 990.4 ± 1.2
8071.5 kPa | 990.5 ± 1.2
8091.2 kPa | 990.5 ± 1.2
8107.4 kPa | 990.5 ± 1.2
8123.4 kPa | 990.4 ± 1.2
8140 kPa | 990.5 ± 1.2
8156.7 kPa | 990.5 ± 1.2
8176.8 kPa | 990.5 ± 1.2
8193.5 kPa | 990.4 ± 1.2
8210.2 kPa | 990.6 ± 1.2
8226.8 kPa | 990.5 ± 1.2
8246.8 kPa | 990.6 ± 1.2
8263.9 kPa | 990.5 ± 1.2
8280.8 kPa | 990.7 ± 1.2
8301 kPa | 990.6 ± 1.2
8317.9 kPa | 990.5 ± 1.2
8338.2 kPa | 990.6 ± 1.2
8355.3 kPa | 990.5 ± 1.2
8372.7 kPa | 990.6 ± 1.2
8393.6 kPa | 990.6 ± 1.2
8411 kPa | 990.6 ± 1.2
8428.8 kPa | 990.6 ± 1.2
8446.4 kPa | 990.8 ± 1.2
8467.8 kPa | 990.7 ± 1.2
8485.5 kPa | 990.7 ± 1.2
8503.5 kPa | 990.8 ± 1.2
8524.7 kPa | 990.8 ± 1.2
8542.8 kPa | 990.8 ± 1.2
8560.9 kPa | 990.8 ± 1.2
8578.8 kPa | 990.9 ± 1.2
8601.1 kPa | 990.7 ± 1.2
8619.5 kPa | 990.8 ± 1.2
8638.2 kPa | 990.8 ± 1.2
8660.8 kPa | 990.7 ± 1.2
8679.6 kPa | 990.8 ± 1.2
8698 kPa | 990.8 ± 1.2
8716.6 kPa | 990.8 ± 1.2
8739.2 kPa | 990.7 ± 1.2
8758 kPa | 990.9 ± 1.2
8777.1 kPa | 991 ± 1.2
8800.4 kPa | 990.8 ± 1.2
8820.1 kPa | 990.9 ± 1.2
8839.6 kPa | 990.9 ± 1.2
8863 kPa | 990.9 ± 1.2
8882.8 kPa | 990.9 ± 1.2
8902.7 kPa | 991 ± 1.2
8923.2 kPa | 990.9 ± 1.2
